Assay results taken from the supplement of paper PMC10307832.

Tests used:
Assay in all cases: relative viability (nuclei count vs DMSO), 5 days (fraction); higher = more cells survive
[1] = test system: H3255
In short: (§1)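 Relative viability divides the nuclei count in treated wells by that in vehicle wells. Lung cancer cell lines were seeded in 1536-well plates, dosed by pin tool the next day, and fixed and stained after 5 days in one step with final 0.05% Triton X-100, 1% formaldehyde and 1 ug/ml Hoechst. Dosing was a single drug or a fixed anchor-drug dose plus five library-drug doses (not always all listed) in √10 steps, and values are medians of duplicate plates imaged at 4×.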

[2] = test system: NCI-H2087
In short: as §1

[3] = test system: NCI-H1395
In short: as §1

[4] = test system: LC-2-ad
In short: as §1

[5] = test system: NCI-H1944
In short: as §1

[6] = test system: COR-L 105
In short: as §1

[7] = test system: NCI-H661
In short: as §1

[8] = test system: NCI-H1651
In short: as §1

[9] = test system: PC-3 [JPC-3]
In short: as §1

[10] = test system: NCI-H1915
In short: as §1

[11] = test system: NCI-H1437
In short: as §1

[12] = test system: NCI-H2347
In short: as §1

[13] = test system: EMC-BAC-2
In short: as §1

[14] = test system: EKVX
In short: as §1

[15] = test system: NCI-H2085
In short: as §1

[16] = test system: LK-2
In short: as §1

[17] = test system: LXF-289
In short: as §1

[18] = test system: CAL-12T
In short: as §1

[19] = test system: NCI-H1755
In short: as §1

[20] = test system: SK-LU-1
In short: as §1

[21] = test system: SK-MES-1
In short: as §1

[22] = test system: NCI-H1793
In short: as §1

[23] = test system: NCI-H2228
In short: as §1

Cc1cnc(-c2cnc(NCCNc3ccc(C#N)cn3)nc2-c2ccc(Cl)cc2Cl)[nH]1 + COc1cc2c(Oc3ccc(NC(=O)C4(C(=O)Nc5ccc(F)cc5)CC4)cc3F)ccnc2cc1OCCCN1CCOCC1 [Foretinib] (partner 0.25 µM)
relative viability ([1]; first compound 0.08 µM): 0.956 | relative viability ([1]; first compound 0.253 µM): 0.696 | relative viability ([1]; first compound 0.8 µM): 0.988 | relative viability ([1]; first compound 2.53 µM): 0.841 | relative viability ([2]; first compound 0.08 µM): 1.31 | relative viability ([2]; first compound 0.253 µM): 1.06 | relative viability ([2]; first compound 0.8 µM): 1.14 | relative viability ([2]; first compound 2.53 µM): 1.14 | relative viability ([3]; first compound 0.08 µM): 1.03 | relative viability ([3]; first compound 0.253 µM): 0.953 | relative viability ([3]; first compound 0.8 µM): 1.02 | relative viability ([3]; first compound 2.53 µM): 0.956 | relative viability ([4]; first compound 0.08 µM): 0.996 | relative viability ([4]; first compound 0.253 µM): 0.711 | relative viability ([4]; first compound 2.53 µM): 1.03 | relative viability ([5]; first compound 0.08 µM): 0.885 | relative viability ([5]; first compound 0.8 µM): 0.902 | relative viability ([5]; first compound 2.53 µM): 0.91 | relative viability ([6]; first compound 0.08 µM): 0.906 | relative viability ([6]; first compound 0.253 µM): 1.03 | relative viability ([6]; first compound 0.8 µM): 0.943 | relative viability ([6]; first compound 2.53 µM): 0.868 | relative viability ([7]; first compound 0.08 µM): 1.05 | relative viability ([7]; first compound 0.253 µM): 0.99 | relative viability ([7]; first compound 0.8 µM): 1.01 | relative viability ([7]; first compound 2.53 µM): 0.894 | relative viability ([8]; first compound 0.08 µM): 0.728 | relative viability ([8]; first compound 0.253 µM): 0.777 | relative viability ([8]; first compound 0.8 µM): 0.785 | relative viability ([8]; first compound 2.53 µM): 0.883 | relative viability ([9]; first compound 0.08 µM): 0.978 | relative viability ([9]; first compound 0.253 µM): 0.926 | relative viability ([9]; first compound 0.8 µM): 1.03 | relative viability ([9]; first compound 2.53 µM): 1.03 | relative viability ([10]; first compound 0.08 µM): 1.11 | relative viability ([10]; first compound 0.253 µM): 0.844 | relative viability ([10]; first compound 0.8 µM): 1.1 | relative viability ([10]; first compound 2.53 µM): 1.07 | relative viability ([11]; first compound 0.08 µM): 1.18 | relative viability ([11]; first compound 0.253 µM): 1.25 | relative viability ([11]; first compound 0.8 µM): 1.24 | relative viability ([11]; first compound 2.53 µM): 1.25 | relative viability ([12]; first compound 0.08 µM): 0.963 | relative viability ([12]; first compound 0.253 µM): 1.11 | relative viability ([12]; first compound 0.8 µM): 0.877 | relative viability ([12]; first compound 2.53 µM): 0.841 | relative viability ([13]; first compound 0.08 µM): 1.1 | relative viability ([13]; first compound 0.253 µM): 0.964 | relative viability ([13]; first compound 0.8 µM): 1.02 | relative viability ([13]; first compound 2.53 µM): 0.939 | relative viability ([14]; first compound 0.08 µM): 0.588 | relative viability ([14]; first compound 0.253 µM): 0.555 | relative viability ([14]; first compound 0.8 µM): 0.626 | relative viability ([14]; first compound 2.53 µM): 0.727 | relative viability ([15]; first compound 0.08 µM): 0.989 | relative viability ([15]; first compound 0.253 µM): 0.88 | relative viability ([15]; first compound 0.8 µM): 0.762 | relative viability ([15]; first compound 2.53 µM): 0.937 | relative viability ([16]; first compound 0.08 µM): 1.6 | relative viability ([16]; first compound 0.253 µM): 0.82 | relative viability ([16]; first compound 0.8 µM): 0.942 | relative viability ([16]; first compound 2.53 µM): 1.21 | relative viability ([17]; first compound 0.08 µM): 1.03 | relative viability ([17]; first compound 0.253 µM): 0.858 | relative viability ([17]; first compound 0.8 µM): 0.994 | relative viability ([17]; first compound 2.53 µM): 1.02 | relative viability ([18]; first compound 0.08 µM): 1.07 | relative viability ([18]; first compound 0.253 µM): 0.946 | relative viability ([18]; first compound 0.8 µM): 1.15 | relative viability ([18]; first compound 2.53 µM): 0.979 | relative viability ([19]; first compound 0.08 µM): 0.936 | relative viability ([19]; first compound 0.253 µM): 0.808 | relative viability ([19]; first compound 0.8 µM): 0.982 | relative viability ([19]; first compound 2.53 µM): 0.972 | relative viability ([20]; first compound 0.08 µM): 0.865 | relative viability ([20]; first compound 0.253 µM): 0.833 | relative viability ([20]; first compound 0.8 µM): 0.983 | relative viability ([20]; first compound 2.53 µM): 1.03 | relative viability ([21]; first compound 0.08 µM): 1.09 | relative viability ([21]; first compound 0.253 µM): 0.909 | relative viability ([21]; first compound 0.8 µM): 0.942 | relative viability ([21]; first compound 2.53 µM): 1.02 | relative viability ([22]; first compound 0.08 µM): 0.807 | relative viability ([22]; first compound 0.253 µM): 0.545 | relative viability ([22]; first compound 0.8 µM): 0.684 | relative viability ([22]; first compound 2.53 µM): 0.723 | relative viability ([23]; first compound 0.08 µM): 0.954 | relative viability ([23]; first compound 0.253 µM): 0.761 | relative viability ([23]; first compound 0.8 µM): 0.898 | relative viability ([23]; first compound 2.53 µM): 0.589
